Here are results for nine compounds from patent US9955691B2, “Macrocyclic picolinamides as fungicides” (DOW AGROSCIENCES LLC, priority 2014, dated 2018).

The subject of data set [1] is Mycosphaerella graminicola; Anamorph: Septoria tritici. The data set can be described thus: Fungicidal activity: Leaf Blotch of Wheat (SEPTTR). Format: in vivo. The following applies: Zymoseptoria tritici, wheat leaf blotch; for pest or weed control at 121.5 g/ha: Low Volume (121.5 g/H); for pest or weed control at 100 µg/mL: High Volume (100 ppm). A digest of the protocol:
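Compounds were dissolved in acetone, diluted with nine volumes of water containing 110 ppm Triton X-100, and sprayed to run-off on first-leaf Yuma wheat seedlings inoculated with Septoria tritici spores before or after treatment. Plants were held in a dew chamber, then a 20° C. greenhouse. Percent control was derived from disease severity relative to untreated plants.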

The next data set deals with Puccinia triticina. The data set can be described thus: Fungicidal activity: Wheat Brown Rust (PUCCRT). The data set is classed as in vivo. The following applies: for pest or weed control at 121.5 g/ha: Low Volume (121.5 g/H); for pest or weed control at 100 µg/mL: High Volume (100 ppm). A digest of the protocol: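 Wheat seedlings (Yuma, first leaf) sprayed to run-off with compound in acetone/water with Triton X-100, inoculated with Puccinia triticina before or after treatment. Held overnight in dark dew at 22° C, then greenhouse at 24° C; percent disease control from severity versus untreated plants.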

The mark [2] stands for this setting: 24 h, 1 Day Protectant, read-out: SEPTTR 1 DP disease control.
The mark [3] stands for this setting: 72 h, 3 Day Curative, read-out: SEPTTR 3 DC disease control.
Where [4] appears, read: 24 h, 1 Day Protectant, read-out: PUCCRT 1 DP disease control.
Setting [5] is: 72 h, 3 Day Curative, read-out: PUCCRT 3 DC disease control.

Where two headings read alike, the source gives them in different places. A value given as a limit tells only on which side of the number the result lay.

What is called melting point is the temperature of the solid-liquid transition.

Regarding `COc1ccnc(C(=O)N[C@H]2COC[C@H](Cc3ccc(C(F)(F)F)cc3)[C@@H](Cc3ccc(OC(F)(F)F)cc3)[C@H](C)OC2=O)c1OCOC(C)=O` [compound 66], the melting point was 57 to 60 °C. Moreover, the pest or weed control at 121.5 g/ha in data set [1] (setting [2]) is greater than 70%. Also, the pest or weed control at 121.5 g/ha in data set [1] (setting [3]) was greater than 70%. Moreover, the pest or weed control at 121.5 g/ha in the data set with Puccinia triticina (setting [4]) was greater than 70%. For the same compound, the pest or weed control at 121.5 g/ha in the data set on Puccinia triticina (setting [5]) is greater than 70%.
In turn, `COc1ccnc(C(=O)N[C@H]2COC[C@H](CC3CC3)[C@@H](Cc3ccccc3)[C@H](C)OC2=O)c1OC(C)=O` [compound 69] showed a melting point of 125 to 128 °C. For the same compound, the pest or weed control at 121.5 g/ha in data set [1] (setting [2]) was greater than 70%. Further, the pest or weed control at 121.5 g/ha in data set [1] (setting [3]) is greater than 70%. Further, the pest or weed control at 121.5 g/ha with Puccinia triticina (setting [4]) was greater than 70%. In the data set on Puccinia triticina (setting [5]), the pest or weed control at 121.5 g/ha is greater than 70%.
Regarding `COc1ccnc(C(=O)N[C@H]2COC[C@H](c3ccccc3)[C@@H](c3ccccc3)[C@H](C)OC2=O)c1O` [compound 116], the melting point was in the range of 64 to 72 °C. Further, the pest or weed control at 100 µg/mL in data set [1] (setting [2]) was greater than 70%. Moreover, in data set [1] (setting [3]), the pest or weed control at 100 µg/mL is less than 70%. For the same compound, the pest or weed control at 100 µg/mL in the data set with Puccinia triticina (setting [4]) was greater than 70%. For the same compound, the pest or weed control at 100 µg/mL with Puccinia triticina (setting [5]) is greater than 70%.
On to `COc1ccnc(C(=O)N[C@H]2COC[C@H](Cc3ccc(C(F)(F)F)cc3)[C@@H](CC(C)C)[C@H](C)OC2=O)c1O` [compound 141], for which the melting point lay within 66 to 71 °C. The pest or weed control at 100 µg/mL in data set [1] (setting [2]) is greater than 70%. For the same compound, the pest or weed control at 100 µg/mL in data set [1] (setting [3]) is greater than 70%. The pest or weed control at 100 µg/mL with Puccinia triticina (setting [4]) was greater than 70%. Moreover, in the data set with Puccinia triticina (setting [5]), the pest or weed control at 100 µg/mL was greater than 70%.
Take `COc1ccnc(C(=O)N[C@H]2COC[C@H](CC3CCCCC3)[C@@H](CC3CCCCC3)[C@H](C)OC2=O)c1OCOC(C)=O` [compound 10]: the melting point lay in the range of 50 to 56 °C. Besides, the pest or weed control at 100 µg/mL in data set [1] (setting [2]) is greater than 70%. Also, the pest or weed control at 100 µg/mL in data set [1] (setting [3]) is less than 70%. In addition, the pest or weed control at 100 µg/mL in the data set on Puccinia triticina (setting [4]) is greater than 70%. In the data set with Puccinia triticina (setting [5]), the pest or weed control at 100 µg/mL was greater than 70%.
Consider `COc1ccnc(C(=O)N[C@H]2COC[C@H](CC3CC3)[C@@H](Cc3ccccc3)[C@H](C)OC2=O)c1O` [compound 140], for which the melting point lay in the range of 56 to 61 °C. The pest or weed control at 100 µg/mL in data set [1] (setting [2]) was greater than 70%. Further, in data set [1] (setting [3]), the pest or weed control at 100 µg/mL is less than 70%. Further, in the data set on Puccinia triticina (setting [4]), the pest or weed control at 100 µg/mL is greater than 70%. In addition, the pest or weed control at 100 µg/mL in the data set with Puccinia triticina (setting [5]) was less than 70%.
Turning to `COc1ccnc(C(=O)N[C@H]2COC[C@H](Cc3ccc(Cl)cc3)[C@@H](Cc3ccc(OC(F)(F)F)cc3)[C@H](C)OC2=O)c1OC(C)=O` [compound 59], the melting point was in the range of 80 to 85 °C. In addition, the pest or weed control at 121.5 g/ha in data set [1] (setting [2]) is less than 70%. Moreover, the pest or weed control at 121.5 g/ha in data set [1] (setting [3]) is less than 70%. In addition, in the data set with Puccinia triticina (setting [4]), the pest or weed control at 121.5 g/ha is less than 70%. Further, the pest or weed control at 121.5 g/ha in the data set with Puccinia triticina (setting [5]) is less than 70%.
The compound `COc1ccnc(C(=O)N[C@H]2COC[C@H](Cc3ccccc3)[C@@H](c3ccccc3)[C@H](C)OC2=O)c1OC(C)=O` [compound 54] registered a melting point of 99 to 103 °C. In addition, in data set [1] (setting [2]), the pest or weed control at 121.5 g/ha was greater than 70%. The pest or weed control at 121.5 g/ha in data set [1] (setting [3]) was greater than 70%. The pest or weed control at 121.5 g/ha in the data set on Puccinia triticina (setting [4]) is greater than 70%. For the same compound, in the data set with Puccinia triticina (setting [5]), the pest or weed control at 121.5 g/ha was greater than 70%.
`CCC[C@H]1COC[C@H](NC(=O)c2nccc(OC)c2OC(C)=O)C(=O)O[C@@H](C)[C@@H]1Cc1ccc(F)cc1` [compound 107] had a melting point of 57 to 62 °C. In data set [1] (setting [2]), the pest or weed control at 121.5 g/ha is greater than 70%. For the same compound, in data set [1] (setting [3]), the pest or weed control at 121.5 g/ha is greater than 70%. In the data set on Puccinia triticina (setting [4]), the pest or weed control at 121.5 g/ha is greater than 70%. Further, the pest or weed control at 121.5 g/ha in the data set with Puccinia triticina (setting [5]) was greater than 70%.
